Measurements: US20240116985A1, “STAPLED PEPTIDES AND METHODS THEREOF” (priority 2020, published 2024)
pIC50: −log10 of the molar value. Converted amounts (≈) assume the structure as drawn. Like-named read-outs stand apart in the source and are kept apart here.

Legend:
[1] = CHI Log D procedure; type: physicochemical; conditions: for CHI Log D: pH 7.4; for chromatographic logD: pH 7.4, CHI Log D
[2] = Solubility in PBS; type: physicochemical
Outline: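 Read-out is the HPLC peak area of the supernatant from ultracentrifuged PBS solution, scaled against a 50 μM peptide DMSO injection; value reported as [(PBS area)/(DMSO area)]*50 uM.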

[3] = target: T1, full-length beta-Catenin (Uniprot ID P35222) (Homo sapiens, UniProt P35222); assay: Fluorescence polarization IC50 (beta-catenin / 5FAM-TCF4 10-53 competition); type: binding
T1 construct: 10 nM full-length beta-Catenin (Uniprot ID P35222)
T1 sequence (P35222 1-781): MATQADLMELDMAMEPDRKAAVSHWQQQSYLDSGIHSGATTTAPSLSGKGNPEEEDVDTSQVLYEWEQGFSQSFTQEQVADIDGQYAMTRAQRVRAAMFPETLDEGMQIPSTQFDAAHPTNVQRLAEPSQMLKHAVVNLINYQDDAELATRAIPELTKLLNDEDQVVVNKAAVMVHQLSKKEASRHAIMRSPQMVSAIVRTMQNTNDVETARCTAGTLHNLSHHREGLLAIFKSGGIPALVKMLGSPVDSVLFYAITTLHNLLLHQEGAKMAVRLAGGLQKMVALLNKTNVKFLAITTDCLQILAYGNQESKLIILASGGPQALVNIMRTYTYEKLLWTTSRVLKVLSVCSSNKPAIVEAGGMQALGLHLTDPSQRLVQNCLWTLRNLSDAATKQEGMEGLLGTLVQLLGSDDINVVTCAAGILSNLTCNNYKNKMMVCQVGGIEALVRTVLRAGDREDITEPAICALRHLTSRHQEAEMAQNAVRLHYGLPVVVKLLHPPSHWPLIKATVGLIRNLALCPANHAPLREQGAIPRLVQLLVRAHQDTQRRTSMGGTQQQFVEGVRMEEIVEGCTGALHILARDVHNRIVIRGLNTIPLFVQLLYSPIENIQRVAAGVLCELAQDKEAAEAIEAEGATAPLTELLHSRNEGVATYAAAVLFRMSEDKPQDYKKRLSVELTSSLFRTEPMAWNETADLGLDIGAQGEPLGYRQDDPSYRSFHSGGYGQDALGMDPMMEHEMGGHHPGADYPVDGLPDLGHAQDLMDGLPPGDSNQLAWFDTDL

[4] = fluorescence polarization, read-out: beta-Catenin FP IC50
[5] = fluorescence polarization, beta-catenin, read-out: FP EC50

| Compound | CHI Log D [1] | Solubility [2] | pIC50 [3, 4] | chromatographic logD [1] | pIC50 ([3]; read-out: beta-Catenin FP IC50) | Solubility ([2]; Solubility (uM)) | pIC50 [3, 5] | pIC50 ([3]; read-out: FP EC50) |
| --- | --- | --- | --- | --- | --- | --- | --- | --- |
| CC(=O)N1CCC[C@]12CC=CCCCC1(CCCC=CCCCOC(=O)N3CC[C@@](C(=O)N[C@@H](Cc4ccsc4)C(=O)N[C@@H](Cc4csc5ccccc45)C(=O)N[C@@H](Cc4c[nH]cn4)C(N)=O)(C3)NC(=O)[C@H](CC(N)=O)NC(=O)[C@H](Cc3ccccc3)NC(=O)[C@H](C)NC(=O)[C@H](C)NC(=O)[C@H](CCC(=O)O)NC(=O)[C@H](CC(=O)O)NC1=O)NC(=O)[C@H](CC(C)(C)C)NC(=O)[C@H](CC(=O)O)NC2=O (stereo partly drawn) [I-698, Ac-PL3-Asp-Npg-B5-Asp-Glu-Ala-Ala-Phe-Asn-PyrS2-3Thi-BztA-His-NH2] | 2.153 | 43 µM (≈ 83.5 µg/mL) | 8.30 |  |  |  |  |  |
| CC(=O)N1CCC[C@]12CC=CCCCC1(CCCC=CCCCOC(=O)N3CC[C@@](C(=O)N[C@@H](Cc4ccccc4Cl)C(=O)N[C@@H](Cc4csc5ccccc45)C(=O)N[C@@H](C(N)=O)[C@H](C)O)(C3)NC(=O)[C@H](Cc3ccccc3)NC(=O)[C@H](Cc3ccccc3)NC(=O)[C@H](C)NC(=O)[C@H](C)NC(=O)[C@H](CCC(=O)O)NC(=O)[C@H](CC(=O)O)NC1=O)NC(=O)[C@H](CC(C)(C)C)NC(=O)[C@H](CC(=O)O)NC2=O (stereo partly drawn) [I-1038, Ac-PL3-Asp-Npg-B5-Asp-Glu-Ala-Ala-Phe-Phe-PyrS2-2C1F-BztA-dThr-NH2] |  | 10 µM (≈ 19.7 µg/mL) |  | 2.73 | 7.00 |  |  |  |
| CC[C@H](NC(=O)[C@H](Cc1csc2ccccc12)NC(=O)[C@H](Cc1ccccc1)NC(=O)[C@]1(C)CCCCCCC=CCCCC2(CCCC=CC[C@]3(CCCN3C(C)=O)C(=O)N[C@@H](CC(=O)O)C(=O)N[C@@H](C)C(=O)N2)C(=O)N[C@@H](CC(=O)O)C(=O)N[C@@H](CCC(=O)O)C(=O)N[C@@H](C)C(=O)N[C@@H](C)C(=O)N[C@@H](Cc2ccccc2)C(=O)N[C@@H](CCC(N)=O)C(=O)N1)C(N)=O (stereo partly drawn) [I-509, Ac-PL3-Asp-Ala-B5-Asp-Glu-Ala-Ala-Phe-Gln-S8-Phe-BztA-Abu-NH2] |  |  | 7.00 | 2.16 |  | 41 µM (≈ 73.7 µg/mL) |  |  |
| CC(=O)N1CCC[C@]12CC=CCCCC1(CCCC=CCCCOC(=O)N3CC[C@@](C(=O)N[C@@H](Cc4ccsc4)C(=O)N[C@@H](Cc4csc5ccccc45)C(=O)N[C@@H](CO)C(N)=O)(C3)NC(=O)[C@H]([C@@H](C)O)NC(=O)[C@H](Cc3ccccc3)NC(=O)[C@H](C)NC(=O)[C@H](C)NC(=O)[C@H](CN(CC(=O)O)CC(F)(F)F)NC(=O)[C@H](CC(=O)O)NC1=O)NC(=O)[C@H](CC(C)(C)C)NC(=O)[C@H](CC(=O)O)NC2=O (stereo partly drawn) [I-956, Ac-PL3-Asp-Npg-B5-Asp-TfeGA-Ala-Ala-Phe-Thr-PyrS2-3Thi-BztA-Ser-NH2] | 1.875 | 46 µM (≈ 90.9 µg/mL) |  |  | 5.96 |  | 5.96 |  |
| CC[C@H](C)[C@@H]1NC(=O)[C@H](CC(=O)O)NC(=O)[C@]2(CC=CCCCC3(CCCC=CCCCCCC[C@@](C)(C(=O)N[C@@H](Cc4ccccc4)C(=O)N[C@@H](Cc4csc5ccccc45)C(=O)N[C@@H](CCC(N)=O)C(N)=O)NC(=O)[C@H](CCC(N)=O)NC(=O)[C@H](Cc4ccccc4)NC(=O)[C@H](Cc4c[nH]c5ccccc45)NC(=O)[C@H](C)NC(=O)[C@H](CCC(=O)O)NC(=O)[C@H](CC(=O)O)NC3=O)NC1=O)CCCN2C(C)=O (stereo partly drawn) [I-665, Ac-PL3-Asp-Ile-B5-Asp-Glu-Ala-Trp-Phe-Gln-S8-Phe-BztA-Gln-NH2] | 2.448 | 47 µM (≈ 93.9 µg/mL) | 6.03 |  |  |  |  | 6.03 |
| CC(=O)N1CCC[C@]12CC=CCCCC1(CCCC=CCCCCCC[C@@](C)(C(=O)N[C@@H](Cc3ccsc3)C(=O)N[C@@H](Cc3csc4ccccc34)C(=O)N[C@@H](Cc3c[nH]cn3)C(N)=O)NC(=O)[C@H](CC(N)=O)NC(=O)[C@H](Cc3ccccc3)NC(=O)[C@H](C)NC(=O)[C@H](C)NC(=O)[C@H](CCC(=O)O)NC(=O)[C@H](CC(=O)O)NC1=O)NC(=O)[C@H](C)NC(=O)[C@H](CC(=O)O)NC2=O (stereo partly drawn) [I-515, Ac-PL3-Asp-Ala-B5-Asp-Glu-Ala-Ala-Phe-Asn-S8-3Thi-BztA-His-NH2] | 2.028 | 46 µM (≈ 84.7 µg/mL) | 7.27 |  |  |  |  | 7.27 |
| CC(=O)N1CCC[C@]12CC=CCCCC1(CCCC=CCCCOC(=O)N3CC[C@@](C(=O)N[C@@H](Cc4ccsc4)C(=O)N[C@@H](Cc4csc5ccccc45)C(=O)N[C@@H](CCC(N)=O)C(N)=O)(C3)NC(=O)[C@H](CC(N)=O)NC(=O)[C@H](Cc3ccccc3)NC(=O)[C@H](CCCCNC(=O)C3CCN(C4CCN(C)CC4)CC3)NC(=O)[C@H](C)NC(=O)[C@H](CC(=O)O)NC(=O)[C@H](CC(=O)O)NC1=O)NC(=O)[C@H](CC(C)(C)C)NC(=O)[C@H](CC(=O)O)NC2=O (stereo partly drawn) [I-888, Ac-PL3-Asp-Npg-B5-Asp-Asp-Ala-[MeBipipAc]Lys-Phe-Asn-PyrS2-3Thi-BztA-Gln-NH2] |  |  |  | 1.39 | 7.89 | 21 µM (≈ 45.9 µg/mL) |  |  |
| CC[C@H](C)[C@@H]1NC(=O)[C@H](CC(=O)O)NC(=O)[C@]2(CC=CCCCC3(CCCC=CCCCCCC[C@@](C)(C(=O)N[C@@H](Cc4ccccc4)C(=O)N[C@@H](Cc4csc5ccccc45)C(=O)N4CCC[C@H]4C(N)=O)NC(=O)[C@H](CCC(N)=O)NC(=O)[C@H](Cc4ccccc4)NC(=O)[C@H](C)NC(=O)[C@H](C)NC(=O)[C@H](CCC(=O)O)NC(=O)[C@H](CC(=O)O)NC3=O)NC1=O)CCCN2C(C)=O (stereo partly drawn) [I-638, Ac-PL3-Asp-Ile-B5-Asp-Glu-Ala-Ala-Phe-Gln-S8-Phe-BztA-Pro-NH2] | 2.622 | 48 µM (≈ 88.9 µg/mL) | 5.41 |  |  |  |  | 5.41 |
| CC(=O)N1CCC[C@]12CC=CCCCC1(CCCC=CCCCCCC[C@@](C)(C(=O)N[C@@H](Cc3ccccc3)C(=O)N[C@@H](Cc3csc4ccccc34)C(=O)N[C@@H](CCC(N)=O)C(N)=O)NC(=O)[C@H](CC(N)=O)NC(=O)[C@H](Cc3cscn3)NC(=O)[C@H](C)NC(=O)[C@H](C)NC(=O)[C@H](CCC(=O)O)NC(=O)[C@H](CC(=O)O)NC1=O)NC(=O)[C@H](C)NC(=O)[C@H](CC(=O)O)NC2=O (stereo partly drawn) [I-524, Ac-PL3-Asp-Ala-B5-Asp-Glu-Ala-Ala-4Thz-Asn-S8-Phe-BztA-Gln-NH2] |  | 50 µM (≈ 91.7 µg/mL) | 5.59 | 1.89 |  |  |  |  |
| CC(=O)N1CCC[C@]12CC=CCCCC1(CCCC=CCCCOC(=O)N3CC[C@@](C(=O)N[C@@H](Cc4ccsc4)C(=O)N[C@@H](Cc4csc5ccccc45)C(=O)N[C@@H](CO)C(N)=O)(C3)NC(=O)[C@H](Cc3ccccc3)NC(=O)[C@H](Cc3ccccc3)NC(=O)[C@H](C)NC(=O)[C@H](C)NC(=O)[C@H](Cc3cccc(C(=O)O)c3)NC(=O)[C@H](CC(=O)O)NC1=O)NC(=O)[C@H](CC(C)(C)C)NC(=O)[C@H](CC(=O)O)NC2=O (stereo partly drawn) [I-982, Ac-PL3-Asp-Npg-B5-Asp-3COOHF-Ala-Ala-Phe-Phe-PyrS2-3Thi-BztA-Ser-NH2] | 1.853 | 16 µM (≈ 31.8 µg/mL) |  |  | 6.72 |  | 6.72 |  |
| CC(=O)N1CCC[C@]12CC=CCCCC1(CCCC=CCCCOC(=O)N3CC[C@@](C(=O)N[C@@H](Cc4ccccc4Cl)C(=O)N[C@@H](Cc4csc5ccccc45)C(=O)N[C@@H](CO)C(N)=O)(C3)NC(=O)[C@H](CO)NC(=O)[C@H](Cc3ccccc3)NC(=O)[C@H](C)NC(=O)[C@H](C)NC(=O)[C@H](CC(N)=O)NC(=O)[C@H](CC(=O)O)NC1=O)NC(=O)[C@H](CC(C)(C)C)NC(=O)[C@H](CC(=O)O)NC2=O (stereo partly drawn) [I-1020, Ac-PL3-Asp-Npg-B5-Asp-Asn-Ala-Ala-Phe-Ser-PyrS2-2C1F-BztA-Ser-NH2] |  | 10 µM (≈ 18.8 µg/mL) |  | 2.49 | 7.28 |  |  |  |
| CC(=O)N1CCC[C@]12CC=CCCCC1(CCCC=CCCCCCC[C@@](C)(C(=O)N[C@@H](Cc3ccccc3)C(=O)N[C@@H](Cc3csc4ccccc34)C(=O)N[C@@H](Cc3c[nH]cn3)C(=O)N[C@@H](C)C(N)=O)NC(=O)[C@H](CC(N)=O)NC(=O)[C@H](Cc3ccccc3)NC(=O)[C@H](C)NC(=O)[C@H](C)NC(=O)[C@H](CCC(=O)O)NC(=O)[C@H](CC(=O)O)NC1=O)NC(=O)[C@H](CC(C)C)NC(=O)[C@H](CC(=O)O)NC2=O (stereo partly drawn) [I-738, Ac-PL3-Asp-Leu-B5-Asp-Glu-Ala-Ala-Phe-Asn-S8-Phe-BztA-His-Ala-NH2] |  |  | 7.20 | 2.46 |  | 41 µM (≈ 79.9 µg/mL) |  |  |
| CC(=O)N1CCC[C@]12CC=CCCCC1(CCCC=CCCCOC(=O)N3CC[C@@](C(=O)N[C@@H](Cc4ccsc4)C(=O)N[C@@H](Cc4csc5ccccc45)C(=O)N[C@@H](CCC(N)=O)C(N)=O)(C3)NC(=O)[C@H]([C@@H](C)O)NC(=O)[C@H](Cc3ccccc3)NC(=O)[C@H](C)NC(=O)[C@H](C)NC(=O)[C@H](Cc3cccc(C(=O)O)c3)NC(=O)[C@H](CC(=O)O)NC1=O)NC(=O)[C@H](CC(C)(C)C)NC(=O)[C@H](CC(=O)O)NC2=O (stereo partly drawn) [I-980, Ac-PL3-Asp-Npg-B5-Asp-3COOHF-Ala-Ala-Phe-Thr-PyrS2-3Thi-BztA-Gln-NH2] | 1.695 | 19 µM (≈ 37.6 µg/mL) |  |  | 6.66 |  | 6.66 |  |
